Several values for one entry are separate records, joined by “and”; a condition that tells them apart may be missing. Equal values may be shown once. Read-outs that look alike come from different tables or passages of the source.
What was measured:
Type in all cases: in vivo, Sprague Dawley rats
[1] = Pharmacokinetic study, bronchoalveolar lavage fluid (BALF)
Procedure: (§1) All PK studies were also conducted with 8–10-week-old male and female Sprague Dawley rats. An additional nine animals/sex/dose were used for PK analysis and blood (approximately 0.3 mL each) was collected from each rat on days 1 and 3 of the treatment period at time points of 5, 30, 60, 90, 120, and 180 min, and 6, 12 h, and 24 h post dose that were randomized to provide a total of three samples/sex for each time point. Samples were collected by jugular venipuncture and the samples were collected into tubes containing the anticoagulant, K3EDTA. The collection of BALF was limited to the terminal time points of 6 h, 12 h, and 24 h. AVR-48 concentrations in the blood and BALF were determined using LC/MS/MS analysis developed in house. PK parameters were estimated using Phoenix pharmacokinetic software (Certara, Princeton, NJ, USA) using a non-compartmental approach consistent with the IV bolus injection.

[2] = Toxicology study of AVR-48, IV dose escalation and repeat dose phases
Procedure: For the PK study of AVR-48 in rats, a formulation consisting of 10% DMSO, 20% tetraglycol, 20% PEG 400, and 50% sterile water was developed. Each preparation was made on the same day of dose administration. The components of the control/vehicle item formulation were added sequentially. Briefly, the appropriate volume of DMSO (10% of the final volume) was measured into a container followed by gradual addition of PEG 400 (20% of the final volume) and sterile water (50% of the final volume) to make up the volume and mixed thoroughly till completely dissolved. The final solution was filtered through a 0.22 µm membrane filter (Millipore Millex® GP PES, St. Louis, MO, USA) into a sterile vial.
The toxicology study of AVR-48 was performed with both 8–10 week old male and female Sprague Dawley rats, in two phases following standard FDA guidance [M3(R2)R]. AVR-48 was injected IV at a volume of 5 mL/kg of body weight after reconstituting in 10% DMSO, 20% tetraglycol, and 20% PEG 400 in sterile water. In the dose escalation phase, 75 to 100 mg/kg per day was administered as two separate doses approximately 6–7 h apart by IV slow bolus injection at a volume of 5 mL/kg of body weight. Three animals of each sex were dosed at each dose level. During the repeat dose phase, daily doses of 0, 40, and 80 mg/kg/day were administered as two divided doses delivered by slow bolus injection at a volume of 5 mL/kg of body weight approximately 6–7 h apart. Study animals (n = 5/sex/dose) were treated for three days with a total of six doses for AVR-48. Twelve to eighteen hours after the last dose was administered, animals were euthanized and blood collected for analysis of clinical chemistry and other hematological parameters. Detailed necropsy examinations were performed on each animal, and tissues were collected and fixed with standard fixatives for histological analysis and interpretation.

[3] = Pharmacokinetic (toxicokinetic) study, plasma; settings: for RAUC (RATIO): Day 3 AUC(0-t) / Day 1 AUC(0-t) / Cmax / Tmax / half-life / clearance / Vd / AUC(0-t): plasma; for Cmax / Tmax / half-life / clearance / Vd / AUC(0-t): Sprague Dawley, rat
Procedure: as §1, with “For the PK study of AVR-48 in rats, a formulation consisting of 10% DMSO, 20% tetraglycol, 20% PEG 400, and 50% sterile water was developed. Each preparation was made on the same day of dose administration. The components of the control/vehicle item formulation were added sequentially. Briefly, the appropriate volume of DMSO (10% of the final volume) was measured into a container followed by gradual addition of PEG 400 (20% of the final volume) and sterile water (50% of the final volume) to make up the volume and mixed thoroughly till completely dissolved. The final solution was filtered through a 0.22 µm membrane filter (Millipore Millex® GP PES, St. Louis, MO, USA) into a sterile vial. All” for “All”

With `CC(=O)N[C@H]1[C@H](Oc2ccc([N+](=O)[O-])cc2)O[C@H](CO)[C@@H](O)[C@@H]1O` [AVR-48, N-((2S,3R,4R,5S,6R)-4,5-dihydroxy-6-(hydroxymethyl)-2-(4-nitrophenoxy)tetrahydro-2H-pyran-3-yl) acetamide] the “AVR-48 in BALF” value ([1]; 6 h post administration) was “measurable concentrations”, the Kp at 6 h ([1]; Sprague Dawley, rat, BALF (bronchoalveolar lavage fluid) relative to plasma, intravenous, 6 h time point, read-out: BALF-to-plasma ratio) was 2.81 to 9.08 and the “AVR-48 in BALF” value ([1]; by 12 h) was “below the limit of detection”. The “tolerability, repeat administration” value ([2]; 40 and 80 mg/kg/day as two daily doses of 20 and 40 mg/kg for three consecutive days, IV) was “well tolerated with no adverse clinical signs”, the “hematology and clinical chemistry parameters” value ([2]; IV for three consecutive days, up to 80 mg/kg/day) was “no changes in any of the hematology or clinical chemistry parameters” and the MTD at 3 days ([2]; both sexes, Sprague Dawley, rat, in vivo, IV, two daily doses for three consecutive days, male and female rats) was 80 mg/kg/day. The NOAEL at 3 days ([2]; both sexes, Sprague Dawley, rat, in vivo, IV, two daily doses for three consecutive days, male and female rats, read-out: no observable adverse effect level (NOAEL)) was 80 mg/kg/day, the adverse signs ([2]; dose escalation, 75 mg/kg/day IV) was “No adverse signs were observed” and the mortality ([2]; dose escalation, 100 mg/kg total daily dose IV) was “A single animal that received a total daily dose of 100 mg/kg died”. The clinical signs ([2]; dose escalation, 100 mg/kg total daily dose, two IV bolus 6-7 h apart) was “clinical signs of hypoactivity, respiratory changes, changes in posture, and loss of motor coordination were observed”, the “therapeutic window over the efficacious dose” value ([2]; rat MTD/NOAEL vs 10 mg/kg efficacious dose in mouse) was roughly 8 fold and the “systemic gross observations at necropsy” value ([2]; repeat dose IV) was “no evidence of any AVR-48 related systemic gross observations at necropsy”. The “RAUC (RATIO): Day 3 AUC(0-t) / Day 1 AUC(0-t)” value ([3]; 40 mg/kg IV, Female) was 0.679, the “RAUC (RATIO): Day 3 AUC(0-t) / Day 1 AUC(0-t)” value ([3]; 40 mg/kg IV, Male) was 0.928 and the “RAUC (RATIO): Day 3 AUC(0-t) / Day 1 AUC(0-t)” value ([3]; 80 mg/kg IV, Female) was 0.953. For the same compound, the “RAUC (RATIO): Day 3 AUC(0-t) / Day 1 AUC(0-t)” value ([3]; 80 mg/kg IV, Male) was 0.777, the Cmax ([3]; iv, 40 mg/kg, 40 mg/kg dose IV, read-out: Cmax) was 364 ± 9.36 µM and the Cmax ([3]; iv, 80 mg/kg, 80 mg/kg dose IV, read-out: Cmax) was 749.3 ± 5.25 µM. The Cmax ([3]; other: IV or IP, 10 mg/kg, single IV or IP 10 mg/kg dose, extrapolated from Cmax at 40 mg/kg, read-out: Cmax in plasma expected for 10 mg/kg) was roughly 91 µM, the Tmax ([3]; Day 1, 40 mg/kg IV, Female) was 5 min and the Tmax ([3]; Day 1, 80 mg/kg IV, Female) was 5 min. The Tmax ([3]; Day 1, 80 mg/kg IV, Male) was 5 min, the Tmax ([3]; Day 3, 40 mg/kg IV, Male) was 5 min and the “AUC(0-t) dose dependence” value ([3]; between 40 and 80 mg/kg/day dose groups) was “increased in a dose-dependent manner”. It also gave a half-life ([3]; both sexes, intravenous, 80 mg/kg, both doses (40 and 80 mg/kg), read-out: half-life (T1/2)) of 1.4 to 2.34 h, a clearance ([3]; both sexes, intravenous, day 1 and day 3 of dosing, read-out: clearance (CL)) of 12.4 to 18.3 mL/min/kg and a Vd ([3]; both sexes, intravenous, day 1 and day 3 of dosing, read-out: volume of distribution (Vd)) of 1.51 to 3.72 L/kg. For the same compound, the AUC(0-t) ([3]; female, iv, 40 mg/kg, Day 1, 40 mg/kg IV, Female) was 53900 ± 2860 ng·h/mL, the clearance ([3]; female, iv, 40 mg/kg, Day 1, 40 mg/kg IV, Female, read-out: Cl (converted)) was 12.4 mL/min/kg and the Cmax ([3]; female, iv, 40 mg/kg, Day 1, 40 mg/kg IV, Female, read-out: Cmax ± SE) was 129000 ng/mL and 377 µM. The half-life ([3]; female, iv, 40 mg/kg, Day 1, 40 mg/kg IV, Female, read-out: T1/2 (converted)) was 1.4 h, the Vd ([3]; female, iv, 40 mg/kg, Day 1, 40 mg/kg IV, Female, read-out: Vd) was 1.51 L/kg and the AUC(0-t) ([3]; female, iv, 40 mg/kg, Day 3, 40 mg/kg IV, Female) was 36600 ng·h/mL. The clearance ([3]; female, iv, 40 mg/kg, Day 3, 40 mg/kg IV, Female, read-out: Cl (converted)) was 18.3 mL/min/kg, the Cmax ([3]; female, iv, 40 mg/kg, Day 3, 40 mg/kg IV, Female, read-out: Cmax ± SE) was 90400 ng/mL and 264 µM and the half-life ([3]; female, iv, 40 mg/kg, Day 3, 40 mg/kg IV, Female, read-out: T1/2 (converted)) was 2.34 h. For the same compound, the Vd ([3]; female, iv, 40 mg/kg, Day 3, 40 mg/kg IV, Female, read-out: Vd) was 3.72 L/kg, the AUC(0-t) ([3]; female, iv, 80 mg/kg, Day 1, 80 mg/kg IV, Female) was 101000 ng·h/mL and the clearance ([3]; female, iv, 80 mg/kg, Day 1, 80 mg/kg IV, Female, read-out: Cl (converted)) was 13.4 mL/min/kg. The Cmax ([3]; female, iv, 80 mg/kg, Day 1, 80 mg/kg IV, Female, read-out: Cmax ± SE) was 237000 ng/mL and 692 µM, the half-life ([3]; female, iv, 80 mg/kg, Day 1, 80 mg/kg IV, Female, read-out: T1/2 (converted)) was 1.45 h and the Vd ([3]; female, iv, 80 mg/kg, Day 1, 80 mg/kg IV, Female, read-out: Vd) was 1.68 L/kg. The AUC(0-t) ([3]; female, iv, 80 mg/kg, Day 3, 80 mg/kg IV, Female) was 95800 ng·h/mL, the clearance ([3]; female, iv, 80 mg/kg, Day 3, 80 mg/kg IV, Female, read-out: Cl (converted)) was 14 mL/min/kg and the Cmax ([3]; female, iv, 80 mg/kg, Day 3, 80 mg/kg IV, Female, read-out: Cmax ± SE) was 227000 ng/mL and 663 µM. It also gave a half-life ([3]; female, iv, 80 mg/kg, Day 3, 80 mg/kg IV, Female, read-out: T1/2 (converted)) of 2.05 h, a Vd ([3]; female, iv, 80 mg/kg, Day 3, 80 mg/kg IV, Female, read-out: Vd) of 2.48 L/kg and an AUC(0-t) ([3]; male, iv, 40 mg/kg, Day 1, 40 mg/kg IV, Male) of 49800 ± 962 ng·h/mL. For the same compound, the clearance ([3]; male, iv, 40 mg/kg, Day 1, 40 mg/kg IV, Male, read-out: Cl (converted)) was 13.4 mL/min/kg, the Cmax ([3]; male, iv, 40 mg/kg, Day 1, 40 mg/kg IV, Male, read-out: Cmax ± SE) was 351 µM and 120000 ng/mL and the half-life ([3]; male, iv, 40 mg/kg, Day 1, 40 mg/kg IV, Male, read-out: T1/2 (converted)) was 1.64 h. For the same compound, the Vd ([3]; male, iv, 40 mg/kg, Day 1, 40 mg/kg IV, Male, read-out: Vd) was 1.91 L/kg, the AUC(0-t) ([3]; male, iv, 40 mg/kg, Day 3, 40 mg/kg IV, Male) was 46200 ng·h/mL and the clearance ([3]; male, iv, 40 mg/kg, Day 3, 40 mg/kg IV, Male, read-out: Cl (converted)) was 14.5 mL/min/kg. For the same compound, the Cmax ([3]; male, iv, 40 mg/kg, Day 3, 40 mg/kg IV, Male, read-out: Cmax ± SE) was 115000 ng/mL and 336 µM, the half-life ([3]; male, iv, 40 mg/kg, Day 3, 40 mg/kg IV, Male, read-out: T1/2 (converted)) was 2.16 h and the Vd ([3]; male, iv, 40 mg/kg, Day 3, 40 mg/kg IV, Male, read-out: Vd) was 2.71 L/kg. For the same compound, the AUC(0-t) ([3]; male, iv, 80 mg/kg, Day 1, 80 mg/kg IV, Male) was 118000 ng·h/mL, the clearance ([3]; male, iv, 80 mg/kg, Day 1, 80 mg/kg IV, Male, read-out: Cl (converted)) was 11.3 mL/min/kg and the Cmax ([3]; male, iv, 80 mg/kg, Day 1, 80 mg/kg IV, Male, read-out: Cmax ± SE) was 276000 ng/mL and 806 µM. It also gave a half-life ([3]; male, iv, 80 mg/kg, Day 1, 80 mg/kg IV, Male, read-out: T1/2 (converted)) of 2.05 h, a Vd ([3]; male, iv, 80 mg/kg, Day 1, 80 mg/kg IV, Male, read-out: Vd) of 2.02 L/kg and an AUC(0-t) ([3]; male, iv, 80 mg/kg, Day 3, 80 mg/kg IV, Male) of 91500 ng·h/mL. The clearance ([3]; male, iv, 80 mg/kg, Day 3, 80 mg/kg IV, Male, read-out: Cl (converted)) was 14.7 mL/min/kg, the Cmax ([3]; male, iv, 80 mg/kg, Day 3, 80 mg/kg IV, Male, read-out: Cmax ± SE) was 190000 ng/mL and 555 µM and the half-life ([3]; male, iv, 80 mg/kg, Day 3, 80 mg/kg IV, Male, read-out: T1/2 (converted)) was 1.42 h. For the same compound, the Vd ([3]; male, iv, 80 mg/kg, Day 3, 80 mg/kg IV, Male, read-out: Vd) was 1.8 L/kg and the accumulation ([3]; three days of twice daily administration) was “no accumulation”.

Reference: publication PMC7961996, “Small Immunomodulatory Molecules as Potential Therapeutics in Experimental Murine Models of Acute Lung Injury (ALI)/Acute Respiratory Distress Syndrome (ARDS)” (International Journal of Molecular Sciences, 2021)
